Values of other authors as cited in US20100069490A1 (priority 2006, published 2010).
Structures can show the parent of a compound that is named as a salt.

Experiments:
rhino mouse model = conditions: applied locally
[1] = in vivo and in vitro
[2] = system: human polymorphonuclear leukocytes
lipase = conditions: pure or in combination with synergisms

Structure (SMILES)	comedolitic activity (rhino mouse model)	anti-inflammatory activity versus reference retinoids [1]	inhibition of chemiotaxic and chemiokinetic response [2]	inhibition of hydrolysis of the triglycerides (lipase)	antibacterial activity (bacteria)
COc1ccc(-c2ccc3cc(C(=O)O)ccc3c2)cc1C12CC3CC(CC(C3)C1)C2 [Adapalene, 6-[3-(1-adamantyl)-4-methoxypheny]-2-naphthanoic acid]	comedolitic	superior to the reference retinoids	inhibits the chemiotaxic and chemiokinetic response	–	–
CCOC(=O)CC(O)(CC(=O)OCC)C(=O)OCC [Triethyl citrate, Triethyl-2-hydroxypropan-1,2,3-tricarboxylate]	–	–	–	able to inhibit hydrolysis of the triglycerides	has antibacterial activity
